By EC50 is commonly meant the concentration that produces a half-maximal response. Low readings indicate greater potency, high ones weaker potency.

The record followed here is US12168646B2, “Aryl hydrocarbon receptor agonists and uses thereof” (NEXYS THERAPEUTICS, INC., priority 2022, dated 2024).

Series [1] is described as follows: Stability in human feces (azo reduction in feces homogenate). Format: in vitro ADME. As to conditions: pH 6.8, 37° C., under nitrogen. On the procedure:
Biological Data 2: Stability in Human Feces
Accordingly, selected azo compounds of the invention were exposed to human feces under conditions suitable to promote azo reduction.
The human feces from two donors were homogenized in isotonic phosphate buffered saline (pH 6.8) with a ratio of 1:10 (w/v). The tubes were sealed using sealing film. Test article was dissolved in isotonic phosphate buffer (pH 6.8) to form a working solution of 20 μM (if the solubility allows). An aliquot of working solution (50 μL) was added to the human feces homogenate (50 μL) for each time point (0, 1, 2, 4, 6 and 24 h) in duplicate and placed under nitrogen for about 1 minute in order to exhaust air, and then incubated at 37° C. After incubation at each pre-set time point, 1000 μL acetonitrile containing internal standard w as added to each tube to quench reaction. Samples were vortexed and centrifuged at 3700 rpm for 10 min and the supernatant was transferred for analysis (and diluted where necessary). The concentrations of test article and its metabolite (example 3) in the supernatants were determined using LC-MS/MS method. Sulfasalazine was used as a positive control. All incubations were performed in duplicate.

For the next series, the target named is T1, AhR (Homo sapiens, UniProt P35869).
T1 construct: HT29-Lucia AhR cells were purchased from Invivogen (cat #ht21-ahr); host or cells: HT29-Lucia AhR cells
T1 sequence (P35869 11-848): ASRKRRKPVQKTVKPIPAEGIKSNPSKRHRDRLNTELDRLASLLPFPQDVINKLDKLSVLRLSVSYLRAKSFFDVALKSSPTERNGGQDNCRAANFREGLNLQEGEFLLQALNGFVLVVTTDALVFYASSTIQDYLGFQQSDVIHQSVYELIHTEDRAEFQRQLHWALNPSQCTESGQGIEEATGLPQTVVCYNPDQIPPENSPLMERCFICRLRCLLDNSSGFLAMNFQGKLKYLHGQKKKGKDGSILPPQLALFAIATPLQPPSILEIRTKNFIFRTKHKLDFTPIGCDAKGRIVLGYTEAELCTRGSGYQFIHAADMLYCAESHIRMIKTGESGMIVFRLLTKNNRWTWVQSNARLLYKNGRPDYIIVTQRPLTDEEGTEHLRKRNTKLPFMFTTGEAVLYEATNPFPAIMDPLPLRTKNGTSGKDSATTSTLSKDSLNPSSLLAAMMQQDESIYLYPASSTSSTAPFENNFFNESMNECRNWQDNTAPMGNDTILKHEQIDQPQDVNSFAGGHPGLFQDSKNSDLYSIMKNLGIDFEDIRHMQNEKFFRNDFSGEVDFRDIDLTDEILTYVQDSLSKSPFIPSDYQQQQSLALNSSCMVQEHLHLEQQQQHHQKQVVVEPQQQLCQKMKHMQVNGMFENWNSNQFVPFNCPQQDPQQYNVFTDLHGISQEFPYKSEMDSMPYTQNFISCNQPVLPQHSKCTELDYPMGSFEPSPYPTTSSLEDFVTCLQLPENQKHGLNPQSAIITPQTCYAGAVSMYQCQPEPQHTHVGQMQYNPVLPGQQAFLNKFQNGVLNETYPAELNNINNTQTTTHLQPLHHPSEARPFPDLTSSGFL
Put plainly: HT29 AhR Reporter Assay (HT29-Lucia AhR cells, QUANTI-Luc luminescence). Format: cell-based. As to conditions: HT29-Lucia AhR cells. On the procedure: Biological Data 1: HT29 AhR Reporter Assay HT29-Lucia AhR cells were purchased from Invivogen (cat #ht21-ahr). […] The cell suspension was removed from growth medium and rinsed gently with pre-warmed PBS (10 mL). Pre-warmed Trypsin (1 mL) was added, and cells were held at 30° C. for about 5 min and then detached by pipette. The dissociated cell clumps were gently pipetted up and down. The cells were resuspended in pre-warmed detection medium (DMEM, 10% FBS (30 min at 56° C.), 100 U/ml penicillin, 100 μg/ml streptomycin, and test article or vehicle) and counted. A cell suspension of ˜500,000 cells/mL in Detection medium was prepared. […] Samples (20 μL/well) were pipetted into a 96-well white (opaque), and QUANTI-Luc™ (50 μL/well) was added. The plate was gently tapped and then read in a luminometer (0.1 s reading time).
(Reporter assays use an easily measured gene product as a stand-in for the process of interest.)

`O=C(O)c1cc(/N=N/c2ccccc2-c2ccnc(Nc3ccc(C(F)(F)F)cc3)n2)cc(C(=O)O)c1O` [Example 37, (E)-2-Hydroxy-5-((2-(2-((4-(trifluoromethyl)phenyl)amino)pyrimidin-4-yl)phenyl)diazenyl)isophthalic acid]: in series [1], the “% of parent remaining after incubation for 6 h” value (“% of parent remaining” for short) was 69%.

As for `O=C(O)c1cc(/C=C/c2ccccc2-c2ccnc(Nc3ccc(C(F)(F)F)cc3)n2)ccc1O` [Example 59, (E)-2-hydroxy-5-(2-(2-((4-(trifluoromethyl)phenyl)amino)pyrimidin-4-yl)styryl)benzoic acid, reference compound], the “% of parent remaining” value in series [1] is on record as 94%. At AhR (18-24 h, EC50 = concentration to reach half of maximum efficacy of reference compound VAF347), this compound gave a concentration giving a half-maximal response (EC50) of 1420 nM. Further, the Emax on AhR (% efficacy = 100%*(TA-BG)/(Ref-BG), Ref = VAF347, read-out: HT29 AhR % efficacy) is 74%.

As to `N[C@H](Cc1cc(/N=N/c2ccccc2-c2ccnc(Nc3ccc(C(F)(F)F)cc3)n2)ccc1O)C(=O)O` [Example 49, (R,E)-2-amino-3-(2-hydroxy-5-((2-(2-((4-(trifluoromethyl)phenyl)amino)pyrimidin-4-yl)phenyl)diazenyl)phenyl)propanoic acid], the “% of parent remaining” value in series [1] is listed as 33%.

As for `O=C(O)c1ccc(/N=N/c2ccccc2-c2ccnc(Nc3ccc(C(F)(F)F)cc3)n2)c(O)c1` [Example 40, (E)-3-hydroxy-4-((2-(2-((4-(trifluoromethyl)phenyl)amino)pyrimidin-4-yl)phenyl)diazenyl)benzoic acid], the “% of parent remaining” value in series [1] amounted to 22%.

Consider `COc1ccc(/N=N/c2ccccc2-c2ccnc(Nc3ccc(C(F)(F)F)cc3)n2)cc1C(=O)O` [Example 43, (E)-2-methoxy-5-((2-(2-((4-(trifluoromethyl)phenyl)amino)pyrimidin-4-yl)phenyl)diazenyl)benzoic acid], for which the “% of parent remaining” value in series [1] worked out at 74%.

`O=C(O)c1cc(O)cc(/N=N/c2ccccc2-c2ccnc(Nc3ccc(C(F)(F)F)cc3)n2)c1` [Example 55, (E)-3-hydroxy-5-((2-(2-((4-(trifluoromethyl)phenyl)amino)pyrimidin-4-yl)phenyl)diazenyl)benzoic acid]: the “% of parent remaining” value in series [1] was determined as 76%.

On to `O=C(O)c1cc(/N=N/c2ccccc2-c2ccnc(Nc3ccc(C(F)(F)F)cc3)n2)ccc1O` [Example 32, (E)-2-hydroxy-5-((2-(2-((4-(trifluoromethyl)phenyl)amino)pyrimidin-4-yl)phenyl)diazenyl)benzoic acid], for which the “% of parent remaining” value in series [1] is 49%.

As to `COc1cc(/N=N/c2ccccc2-c2ccnc(Nc3ccc(C(F)(F)F)cc3)n2)ccc1C(=O)O` [Example 42, (E)-2-methoxy-4-((2-(2-((4-(trifluoromethyl)phenyl)amino)pyrimidin-4-yl)phenyl)diazenyl)benzoic acid], the “% of parent remaining” value in series [1] is reported as 98%.

Take `Oc1ccc(/N=N/c2ccccc2-c2ccnc(Nc3ccc(C(F)(F)F)cc3)n2)cc1` [Example 33, (E)-4-((2-(2-((4-(trifluoromethyl)phenyl)amino)pyrimidin-4-yl)phenyl)diazenyl)phenol]: the “% of parent remaining” value in series [1] turned out to be 59%.
